Assays:
Format in all cases: in vivo
LOLMU Lolium multiflorum [1] = test: Post-emergence herbicidal action against harmful plants; settings: scored after 3 to 4 weeks
Description: (§1) Seeds of mono- and dicotyledonous harmful plants are placed in sandy loam in cardboard pots, covered with soil and grown in the greenhouse under good growth conditions. Two to three weeks after sowing, the test plants are treated at the three-leaf stage. The compounds according to the invention, which are formulated as wettable powders or as emulsion concentrates, are sprayed at an application rate of 600 to 800 l of water/ha (converted) in a dosage stated in tables 1 to 5 onto the surface of the green plant parts. After the test plants have been left to stand in the greenhouse for 3 to 4 weeks under optimum growth conditions, the action of the compounds according to the invention is scored in comparison to compounds disclosed in the prior art. As shown by the results of these comparison tables, the selected compounds according to the invention have better herbicidal activity against a broad spectrum of economically important mono- and dicotyledonous harmful plants than the compounds disclosed in the prior art.

SETVI Setaria viridis [2] = test: as above; settings: scored after 3 to 4 weeks
Description: as §1

[3] = tested on: ECHCG Echinochloa crus galli; test: as above; settings: scored after 3 to 4 weeks
Description: as §1

[4] = tested on: XANST Xanthium strumarium; test: Pre-emergence herbicidal action against harmful plants; settings: 80 g a.i./ha, visual scoring 3-4 weeks after treatment, Comparative Table 9
From the text: (§2) Seeds or rhizome pieces of mono- and dicotyledonous harmful plants are placed in sandy loam in pots of a diameter of 9 to 13 cm and covered with soil. The herbicides, formulated as emulsifiable concentrates or dusts, are applied to the surface of the covering soil in the form of aqueous dispersions or suspensions or emulsions at an application rate of 300 to 800 l of water/ha (converted), at various dosages. For further cultivation of the plants, the pots are then kept in a greenhouse under optimum conditions. The visual scoring of the damage to the harmful plants is carried out 3-4 weeks after the treatment. As shown by the results of these comparative tables, the selected compounds according to the invention have better herbicidal activity against a broad spectrum of economically important mono- and dicotyledonous harmful plants than the compounds disclosed in the prior art.

VIOTR Viola tricolor [5] = test: as above; settings: 80 g a.i./ha, visual scoring 3-4 weeks after treatment, Comparative Table 9
From the text: as §2

VERPE Veronica persica [6] = test: as above; settings: 80 g a.i./ha, visual scoring 3-4 weeks after treatment
From the text: as §2

[7] = tested on: AMARE Amaranthus retroflexus; test: as above; settings: visual scoring 3-4 weeks after treatment
From the text: as §2

STEME Stellaria media [8] = test: as above; settings: 80 g a.i./ha, visual scoring 3-4 weeks after treatment, Comparative Table 2
From the text: as §2

STEME Stellaria media [9] = test: Post-emergence herbicidal action against harmful plants; settings: Port-emergence, 80 g a.i./ha, scored after 3 to 4 weeks; Comparative Table 5
Description: as §1

[10] = tested on: POLCO Polygonum convolvulus; test: as above; settings: Port-emergence, 80 g a.i./ha, scored after 3 to 4 weeks; Comparative Table 5
Description: as §1

VIOTR Viola tricolor [11] = test: as above; settings: 80 g a.i./ha, scored after 3 to 4 weeks
Description: as §1

VERPE Veronica persica [12] = test: as above; settings: 80 g a.i./ha, scored after 3 to 4 weeks
Description: as §1

LOLMU Lolium multiflorum [13] = test: Pre-emergence herbicidal action against harmful plants; settings: visual scoring 3-4 weeks after treatment
From the text: as §2

[14] = tested on: ABUTH Abutilon theophrasti; test: as above; settings: 80 g a.i./ha, visual scoring 3-4 weeks after treatment, Comparative Table 1
From the text: as §2

[15] = tested on: ECHCG Echinochloa crus galli; test: as above; settings: 80 g a.i./ha, visual scoring 3-4 weeks after treatment, Comparative Table 1
From the text: as §2

[16] = tested on: AMARE Amaranthus retroflexus; test: Post-emergence herbicidal action against harmful plants; settings: Port-emergence, 80 g a.i./ha, scored after 3 to 4 weeks; Comparative Table 4
Description: as §1

MATIN Matricaria inodora = test: as above; settings: 80 g a.i./ha, scored after 3 to 4 weeks
Description: as §1

[17] = tested on: ABUTH Abutilon theophrasti; test: as above; settings: Port-emergence, 80 g a.i./ha, scored after 3 to 4 weeks; Comparative Table 4
Description: as §1

GALAP Galium aparine = test: Pre-emergence herbicidal action against harmful plants; settings: 80 g a.i./ha, visual scoring 3-4 weeks after treatment, Comparative Table 8
From the text: as §2

[18] = tested on: POLCO Polygonum convolvulus; test: as above; settings: 80 g a.i./ha, visual scoring 3-4 weeks after treatment, Comparative Table 8
From the text: as §2

[19] = tested on: XANST Xanthium strumarium; test: Post-emergence herbicidal action against harmful plants; settings: 80 g a.i./ha, scored after 3 to 4 weeks, Comparative Table 11
Description: as §1

AVESA [20] = test: as above; settings: Port-emergence, scored after 3 to 4 weeks, Comparative Table 7
Description: as §1

[21] = tested on: DIGSA Digitaria sanguinalis; test: as above; settings: 80 g a.i./ha, scored after 3 to 4 weeks, Comparative Table 10
Description: as §1

AVESA [22] = test: Pre-emergence herbicidal action against harmful plants; settings: 320 g a.i./ha, visual scoring 3-4 weeks after treatment, Comparative Table 6
From the text: as §2

SETVI Setaria viridis [23] = test: as above; settings: 320 g a.i./ha, visual scoring 3-4 weeks after treatment, Comparative Table 6
From the text: as §2

[24] = Post-emergence, 80 g a.i./ha, Comparative Table 3
[25] = 80 g a.i./ha, Comparative Table 2
[26] = Port-emergence, Comparative Table 5
[27] = 80 g a.i./ha, Comparative Table 1
[28] = Port-emergence, Comparative Table 4
[29] = 80 g a.i./ha, Comparative Table 8
[30] = Post-emergence, Comparative Table 11
[31] = Port-emergence, 320 g a.i./ha, Comparative Table 7
[32] = Post-emergence, 80 g a.i./ha, Comparative Table 10
[33] = Port-emergence, 80 g a.i./ha, Comparative Table 7
[34] = 320 g a.i./ha, Comparative Table 6

Structure (SMILES): CCn1ncc(C(=O)c2ccc(C(F)(F)F)c(S(C)(=O)=O)c2C)c1O [drawing 19]
- Activity against harmful plants LOLMU (LOLMU Lolium multiflorum [1]; [24]): 60%
- Activity against harmful plants SETVI (SETVI Setaria viridis [2]; [24]): 100%
- Activity against harmful plants ECHCG [3, 24]: 90%

Structure (SMILES): CCn1ncc(C(=O)c2ccc(C(F)(F)F)c(S(C)(=O)=O)c2C)c1O [drawing 31]
- Activity against harmful plants XANST [4]: 100%
- Activity against harmful plants VIOTR (VIOTR Viola tricolor [5]): 90%
- Activity against harmful plants VERPE (VERPE Veronica persica [6]; Comparative Table 9): 90%

Structure (SMILES): CCn1ncc(C(=O)c2ccc(C(F)(F)F)c(F)c2C)c1O [drawing 18]
- Activity against harmful plants AMARE [7, 25]: 0%
- Activity against harmful plants STEME (STEME Stellaria media [8]): 40%
- Activity against harmful plants VERPE (VERPE Veronica persica [6]; Comparative Table 2): 0%

Structure (SMILES): CCn1ncc(C(=O)c2ccc(C(F)(F)F)c(S(C)(=O)=O)c2C)c1O [drawing 23]
- Activity against harmful plants STEME (STEME Stellaria media [9]): 90%
- Activity against harmful plants POLCO [10]: 100%
- Activity against harmful plants VIOTR (VIOTR Viola tricolor [11]; [26]): 80%
- Activity against harmful plants VERPE (VERPE Veronica persica [12]; [26]): 90%

Structure (SMILES): CCn1ncc(C(=O)c2ccc(C(F)(F)F)c(S(C)(=O)=O)c2C)c1O [drawing 17]
- Activity against harmful plants AMARE [7, 25]: 90%
- Activity against harmful plants STEME (STEME Stellaria media [8]): 90%
- Activity against harmful plants VERPE (VERPE Veronica persica [6]; Comparative Table 2): 90%

Structure (SMILES): CCn1ncc(C(=O)c2ccc(C(F)(F)F)c(S(C)(=O)=O)c2C)c1O [drawing 15]
- Activity against harmful plants LOLMU (LOLMU Lolium multiflorum [13]; [27]): 70%
- Activity against harmful plants ABUTH [14]: 100%
- Activity against harmful plants ECHCG [15]: 100%

Structure (SMILES): CCn1ncc(C(=O)c2ccc(S(C)(=O)=O)c(S(C)(=O)=O)c2C)c1O [drawing 32]
- Activity against harmful plants XANST [4]: 40%
- Activity against harmful plants VIOTR (VIOTR Viola tricolor [5]): 20%
- Activity against harmful plants VERPE (VERPE Veronica persica [6]; Comparative Table 9): 80%

Structure (SMILES): CCn1ncc(C(=O)c2ccc(C(F)(F)F)c(F)c2C)c1O [drawing 20]
- Activity against harmful plants LOLMU (LOLMU Lolium multiflorum [1]; [24]): 0%
- Activity against harmful plants SETVI (SETVI Setaria viridis [2]; [24]): 0%
- Activity against harmful plants ECHCG [3, 24]: 0%

Structure (SMILES): CCn1ncc(C(=O)c2ccc(C(F)(F)F)c(S(C)(=O)=O)c2C)c1O [drawing 21]
- Activity against harmful plants AMARE [16]: 100%
- Activity against harmful plants MATIN (MATIN Matricaria inodora; [28]): 90%
- Activity against harmful plants ABUTH [17]: 90%

Structure (SMILES): CCn1ncc(C(=O)c2ccc(C(F)(F)F)c(S(C)(=O)=O)c2C)c1O [drawing 29]
- Activity against harmful plants LOLMU (LOLMU Lolium multiflorum [13]; [29]): 70%
- Activity against harmful plants GALAP (GALAP Galium aparine): 80%
- Activity against harmful plants POLCO [18]: 50%

Structure (SMILES): CCn1ncc(C(=O)c2ccc(S(C)(=O)=O)c(S(C)(=O)=O)c2C)c1O [drawing 36]
- Activity against harmful plants XANST [19]: 70%
- Activity against harmful plants VIOTR (VIOTR Viola tricolor [11]; [30]): 50%
- Activity against harmful plants MATIN (MATIN Matricaria inodora; [30]): 40%
- Activity against harmful plants VERPE (VERPE Veronica persica [12]; [30]): 80%

Structure (SMILES): CCn1ncc(C(=O)c2ccc(S(C)(=O)=O)c(S(C)(=O)=O)c2C)c1O [drawing 30]
- Activity against harmful plants LOLMU (LOLMU Lolium multiflorum [13]; [29]): 0%
- Activity against harmful plants GALAP (GALAP Galium aparine): 60%
- Activity against harmful plants POLCO [18]: 30%

Structure (SMILES): CCn1ncc(C(=O)c2ccc(C(F)(F)F)c(F)c2C)c1O [drawing 16]
- Activity against harmful plants LOLMU (LOLMU Lolium multiflorum [13]; [27]): 0%
- Activity against harmful plants ABUTH [14]: 0%
- Activity against harmful plants ECHCG [15]: 30%

Structure (SMILES): Cc1c(C(=O)c2cnn(C)c2O)ccc(C(F)(F)F)c1Cl
- Activity against harmful plants LOLMU (LOLMU Lolium multiflorum [1]; [31]): 20%
- Activity against harmful plants AVESA (AVESA [20]; 320 g a.i./ha): 20%
- Activity against harmful plants SETVI (SETVI Setaria viridis [2]; [31]): 30%
- Activity against harmful plants ECHCG [3, 31]: 0%

Structure (SMILES): CCn1ncc(C(=O)c2ccc(C(F)(F)F)c(F)c2C)c1O [drawing 24]
- Activity against harmful plants STEME (STEME Stellaria media [9]): 0%
- Activity against harmful plants POLCO [10]: 60%
- Activity against harmful plants VIOTR (VIOTR Viola tricolor [11]; [26]): 0%
- Activity against harmful plants VERPE (VERPE Veronica persica [12]; [26]): 0%

Structure (SMILES): CCn1ncc(C(=O)c2ccc(S(C)(=O)=O)c(S(C)(=O)=O)c2C)c1O [drawing 34]
- Activity against harmful plants LOLMU (LOLMU Lolium multiflorum [1]; [32]): 20%
- Activity against harmful plants SETVI (SETVI Setaria viridis [2]; [32]): 80%
- Activity against harmful plants DIGSA [21]: 80%
- Activity against harmful plants ECHCG [3, 32]: 80%

Structure (SMILES): Cc1c(C(=O)c2cnn(C)c2O)ccc(C(F)(F)F)c1S(C)(=O)=O [drawing 27]
- Activity against harmful plants LOLMU (LOLMU Lolium multiflorum [1]; [33]): 80%
- Activity against harmful plants AVESA (AVESA [20]; 80 g a.i./ha): 70%
- Activity against harmful plants SETVI (SETVI Setaria viridis [2]; [33]): 90%
- Activity against harmful plants ECHCG [3, 33]: 90%

Structure (SMILES): Cc1c(C(=O)c2cnn(C)c2O)ccc(C(F)(F)F)c1S(C)(=O)=O [drawing 25]
- Activity against harmful plants LOLMU (LOLMU Lolium multiflorum [13]; [34]): 90%
- Activity against harmful plants AVESA (AVESA [22]): 90%
- Activity against harmful plants AMARE [7, 34]: 100%
- Activity against harmful plants SETVI (SETVI Setaria viridis [23]): 100%

Structure (SMILES): CCn1ncc(C(=O)c2ccc(C(F)(F)F)c(F)c2C)c1O [drawing 22]
- Activity against harmful plants AMARE [16]: 0%
- Activity against harmful plants MATIN (MATIN Matricaria inodora; [28]): 0%
- Activity against harmful plants ABUTH [17]: 80%

Structure (SMILES): Cc1c(C(=O)c2cnn(C)c2O)ccc(C(F)(F)F)c1F
- Activity against harmful plants LOLMU (LOLMU Lolium multiflorum [13]; [34]): 20%
- Activity against harmful plants AVESA (AVESA [22]): 20%
- Activity against harmful plants AMARE [7, 34]: 50%
- Activity against harmful plants SETVI (SETVI Setaria viridis [23]): 20%

Structure (SMILES): CCn1ncc(C(=O)c2ccc(C(F)(F)F)c(S(C)(=O)=O)c2C)c1O [drawing 35]
- Activity against harmful plants XANST [19]: 100%
- Activity against harmful plants VIOTR (VIOTR Viola tricolor [11]; [30]): 80%
- Activity against harmful plants MATIN (MATIN Matricaria inodora; [30]): 90%
- Activity against harmful plants VERPE (VERPE Veronica persica [12]; [30]): 90%

Structure (SMILES): CCn1ncc(C(=O)c2ccc(C(F)(F)F)c(S(C)(=O)=O)c2C)c1O [drawing 33]
- Activity against harmful plants LOLMU (LOLMU Lolium multiflorum [1]; [32]): 60%
- Activity against harmful plants SETVI (SETVI Setaria viridis [2]; [32]): 100%
- Activity against harmful plants DIGSA [21]: 100%
- Activity against harmful plants ECHCG [3, 32]: 90%

From patent US7932211B2, “4-(4-trifluoromethyl-3-thiobenzoyl)pyrazoles and their use as herbicides” (Bayer Cropscience AG, priority 2007, dated 2011)
